Tests used:
zebrafish embryos = assay: Intersegmental vessel (ISV) branching in zebrafish embryos; type: in vivo; conditions: human SerRS mRNA co-injected with SerRS-MO, 3 dpf
Protocol: In FIG. 2A, wild type SerRS (SerRS^WT), its mutants with double substitutions of serine 101 and 241 with alanine or aspartic acid residues (SerRS^S101A/S241A and SerRS^S101D/S241D), or empty vector were transfected into HEK293 cells. The expression levels of SerRS proteins was measured by immunoblot (bottom) and VEGFA expression was determined by qRT-PCR (means±SEM from three independent experiments; ***P<0.0001). In FIGS. 2B-D, the roles of SerRS^S101A/S241A and SerRS^S101D/S241D in regulating vascular development in vivo in zebrafish were examined by co-injection of SerRS^S101A/S241A and SerRS^S101D/S241D mRNAs into one-cell-stage embryos whose endogenous SerRS was knocked down by injection of antisense morpholino (SerRS-MO) that led to abnormal high expression of Vegfa and hypervascularization (shown by short bold arrows in FIG. 2C). At 3 day post fertilization (dpf), embryos were harvested and Vegfa expression levels were measured by qRT-PCR (means±SEM, n=125-211; *P<0.01, **P<0.001) (B). The development of intersegmental vessel (ISV) at 3 dpf was examined (C) and the statistics of ISV abnormal branching rescued by SerRS^WT or mutant SerRS mRNA injections was analyzed (D; χ^2-test,* P>0.05 vs SerRS^WT, **P>0.1 vs SerRS-MO, ***P<1×10^−28 vs control-MO). In FIG. 2E, the binding affinities of SerRS^WT or SerRS^S101D/S241D with ^32P labeled DNA fragments corresponding to SerRS binding site on human VEGFA promoter were examined by EMSA. In FIG. 2F, the binding of SerRS^WT, SerRS^S101A/S241A, or SerRS^S101D/S241D on VEGFA promoter in HEK293 cells was examined by chromatin immunoprecipitation (ChIP) and qPCR (means±SEM from two independent experiments; ***P<0.0001). In FIG. 2G, the binding of endogenous SerRS on VEGFA promoter during hypoxia course was monitored by ChIP (means±SEM from three independent experiments; *P<0.05, **P<0.005 vs normal).
Transgenic Tg (Fli1a: EGFP) fish were maintained as we described before (Ref). The fish embryos were kept at 28.5° C. before and after microinjection. The antisense morpholino (MOs) targeting SerRS was injected into the yolk of 1-cell stage embryos at the dosage of 4˜5 ng per embryo. The sequence of SerRS-MO is (Ref). The SerRS-MO (5′ AGGAGAATGTGAACAAACCTGACAC 3′ (SEQ ID NO: 34)) and standard control MO (5′ CCTCTTACCTCAGTTACAATTTATA 3′ (SEQ ID NO: 35)) were purchased from Gene Tools, LLC (Philomath, Oreg. USA). After injection, embryos were incubated in E3 embryo medium supplemented with 0.003% 1-phenyl-2-thiourea (PTU) at 28.5° C. to prevent pigment formation. […] The rescue effects of different SerRS mutants on ISV development were analyzed with χ^2 test. […]

3B11 endothelial cells = assay: Matrigel plug angiogenesis assay with stably transfected 3B11 cells; type: in vivo; conditions: 3B11 cells stably transfected with mouse SerRS gene, C3H/HeJ mice, 14 days
Protocol: In FIG. 4A, mouse 3B11 endothelial cells were stably transfected with mouse wild type SerRS or mutant SerRS and the expression of SerRS were examined by immunoblot with anti-SerRS antibody and quantified by the density of the bands. In FIGS. 4B-C, Matrigel plug angiogenesis assay was performed with stably transfected 3B11 cells in C3H/HeJ mice. Matrigel plugs (dash lines enclosed regions) excised 14 days after implantation were analyzed by immunohistochemistry for CD31 (FIG. 4B) and microvessel density was quantified (FIG. 4C) (n=10-15).
A total of 10^6 of stably transfected 3B11 cells were resuspended in 100 μl of DMEM medium supplemented with 10% FBS and then mixed with 200 μl of ice-cold matrigel (BD Biosciences, San Jose, Calif., USA) liquid on ice. The 300 μl of cell and matrigel mixture was injected subcutaneously into a flank of C3H/HeJ mice (two injection sites per mouse and 5-6 mice in each group) (Jackson Laboratory). After inoculation for 14 days, the matrigel plugs were excised and frozen in Tissue-Tek® OCT compound for cryostat sectioning. All the mouse experiments were conducted according to the guidelines established by the Institutional Animal Care and Use Committee (IACUC) at The Scripps Research Institute, IACUC approval protocol number 13-0003.
5-μm sections from freshly frozen tumor xenograft and matrigel plugs were treated with acetone and 3% H2O2 to block endogenous peroxidase. After 3-5 times wash and goat serum block, the sections were incubated with an anti-CD31 antibody (1:3000; Cell Signaling Technology) overnight at 4° C. The blood vessels were counted in 5-10 random viable fields (120×) in tumor xenograft samples and microvessel density in matrigel plugs was quantified by measuring the CD31 staining density using Image J software. To detect the hypoxia, we incubated the slides with anti-HIF1α antibody (1:100; Novus Biologicals).
A matrigel plug angiogenesis assay was used. […] At the same time, the microvasculature in the plug was evaluated by CD31 immuno-staining.

Substance	zebrafish embryos with abnormal hyper-ISV branching phenotype (zebrafish embryos) [%]	microvessel formation in the matrigel plug (CD31) (3B11 endothelial cells)
SerRS^S101A/S241A: phosphorylation-deficient human SerRS double mutant, serine 101 and 241 to alanine, SEQ ID NO: 4 (mouse version in matrigel assay)	26.4	strongly suppressed the microvessel formation
SerRS^S101D/S241D: SerRS with double substitutions of S101 and S241 with aspartic acid, mimics the phosphorylated SerRS	62.7	did not suppress microvascular formation
SerRS^WT: wildtype human seryl-tRNA synthetase protein, SEQ ID NO: 1 (mouse wild type used in the 3B11 matrigel assay)	17.9	did not suppress microvascular formation

From patent US20190167771A1, “CONTROL ANGIOGENESIS BY REGULATING PHOSPHORYLATION OF SERYL-tRNA SYNTHETASE (SerRS)” (The Scripps Research Institute, priority 2016, published 2019)
